We go through 22 compounds from patent publication US12043602B2, “Fendiline derivatives” (The Board of Regents of the University of Texas System, priority 2019, dated 2024).

One data set concerns the target mGFP-K-RASG12V (Homo sapiens (Human), UniProt P01116, G12V). Briefly: K-Ras mislocalization assay (confocal microscopy, Manders coefficient). The conditions noted are these: for Emax: maximal effect, Manders coefficient; for Emax / EC50 / IC50: MDCK cells; for Emax / EC50: 48 h; for EC50: batch 4 compounds, title calls it IC50, read-out: EC50; for IC50: 48 h treatment, read-out: IC50 (μM), KRASG12V mislocalization. Set-up: key to Emax: Manders coefficient: fraction of mCherry-CAAX co-localizing with GFP-K-Ras. Type of data set: cell-based. The gist of the method:
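MDCK cells stably co-expressing mGFP-K-RASG12V and mCherry-CAAX (endomembrane marker) treated with compound or 0.1% DMSO for 48 h, fixed in 4% paraformaldehyde, imaged by confocal microscopy. Mislocalization quantified as the fraction of mCherry-CAAX co-localizing with mGFP-K-RASG12V (Manders coefficient) after 8-bit thresholding.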

Data set [1] has as its system MDCK cells co-expressing GFP-K-RASG12V and mCherry-CAAX. Kind of data set: Cytotoxicity in mislocalization screen (death of all cells in well). The conditions noted are these: drug caused death of all cells in well at 30 μM.

Compound `CN1CCN(C(=O)[C@H](NCC=C(c2ccccc2)c2ccccc2)c2ccccc2)CC1` [NY0557, (R)-2-((3,3-diphenylallyl)amino)-1-(4-methylpiperazin-1-yl)-2-phenylethan-1-one] returned an Emax at mGFP-K-RASG12V of 0.732. Moreover, the “Cytotoxic at 30 μM” value in data set [1] is on record as “No”.

For `COC(=O)[C@H](CC(C)C)NC(=O)[C@H](NCC=C(c1ccccc1)c1ccccc1)c1ccccc1` [NY0566, methyl ((R)-2-((3,3-diphenylallyl)amino)-2-phenylacetyl)-L-leucinate], at mGFP-K-RASG12V, the EC50 was found to be 5930 nM and the Emax was found to be 0.718. The “Cytotoxic at 30 μM” value in data set [1] is given as “No”.

Turning to `CC(=O)NNC(=O)[C@H](NCC=C(c1ccccc1)c1ccccc1)c1ccccc1` [NY0568, (R)-N′-acetyl-2-((3,3-diphenylallyl)amino)-2-phenylacetohydrazide], the Emax at mGFP-K-RASG12V is on record as 0.364. Further, the “Cytotoxic at 30 μM” value in data set [1] was “No”.

For `NC(=O)[C@H](NCC=C(c1ccccc1)c1ccccc1)c1ccccc1` [NY0569, (R)-2-((3,3-diphenylallyl)amino)-2-phenylacetamide], the Emax at mGFP-K-RASG12V is on record as 0.321. The “Cytotoxic at 30 μM” value in data set [1] is reported as “No”.

The compound `Cc1nnc([C@H](NCC=C(c2ccccc2)c2ccccc2)c2ccccc2)o1` [NY0570, (R)-N-((5-methyl-1,3,4-oxadiazol-2-yl)(phenyl)methyl)-3,3-diphenylprop-2-en-1-amine] returned an Emax on mGFP-K-RASG12V of 0.397. Also, the “Cytotoxic at 30 μM” value in data set [1] is on record as “No”.

With `C[C@@H](NCC(=O)N1c2ccccc2Sc2ccccc21)c1ccccc1` [NY0572, (R)-1-(10H-phenothiazin-10-yl)-2-((1-phenylethyl)amino)ethan-1-one], the Emax on mGFP-K-RASG12V amounted to 0.565. For the same compound, in data set [1], the “Cytotoxic at 30 μM” value is reported as “No”.

Take `C[C@@H](NCC(=O)N1c2ccccc2Sc2ccccc21)c1ccc(F)cc1` [NY0573, (R)-2-((1-(4-fluorophenyl)ethyl)amino)-1-(10H-phenothiazin-10-yl)ethan-1-one]: at mGFP-K-RASG12V, the EC50 was 1750 nM and the Emax is 0.733. Moreover, the “Cytotoxic at 30 μM” value in data set [1] was “No”.

As for `C[C@@H](NCCN1c2ccccc2Sc2ccccc21)c1ccccc1` [NY0574, (R)-N-(2-(10H-phenothiazin-10-yl)ethyl)-1-phenylethan-1-amine], on mGFP-K-RASG12V, the EC50 turned out to be 4820 nM and the Emax was 0.842. Besides, in data set [1], the “Cytotoxic at 30 μM” value is listed as “No”.

Take `C[C@@H](NCCN1c2ccccc2Sc2ccccc21)c1ccc(F)cc1` [NY0575, (R)-N-(2-(10H-phenothiazin-10-yl)ethyl)-1-(4-fluorophenyl)ethan-1-amine]: at mGFP-K-RASG12V, the 50% effective concentration (EC50) is 4300 nM and the Emax was 0.484. The “Cytotoxic at 30 μM” value in data set [1] is “No”.

As to `C[C@@H](NCC(=O)N1c2ccccc2CCc2ccccc21)c1ccc(F)cc1` [NY0583, (R)-1-(10,11-dihydro-5H-dibenzo[b,f]azepin-5-yl)-2-((1-(4-fluorophenyl)ethyl)amino)ethan-1-one], on mGFP-K-RASG12V, the concentration giving a half-maximal response (EC50) amounted to 3910 nM and the Emax worked out at 0.725. For the same compound, in data set [1], the “Cytotoxic at 30 μM” value is recorded as “No”.

As for `C[C@@H](NCC(=O)N1c2ccccc2CCc2ccccc21)c1ccccc1` [NY0584, (R)-1-(10,11-dihydro-5H-dibenzo[b,f]azepin-5-yl)-2-((1-phenylethyl)amino)ethan-1-one], on mGFP-K-RASG12V, the EC50 turned out to be 6940 nM and the Emax was found to be 0.697. Further, the “Cytotoxic at 30 μM” value in data set [1] is “No”.

As for `COc1ccc([C@@H](C)N(CC=C(c2ccccc2)c2ccccc2)CCN2CCN(C(=O)NC(C)(C)C)CC2)cc1` [NY0587, (R)-N-(tert-butyl)-4-(2-((3,3-diphenylallyl)(1-(4-methoxyphenyl)ethyl)amino)ethyl) piperazine-1-carboxamide], at mGFP-K-RASG12V, the concentration for a half-maximal effect (EC50) amounted to 1830 nM and the Emax stood at 0.827. Besides, the “Cytotoxic at 30 μM” value in data set [1] is recorded as “No”.

On to `CCN1CCN(CCN(CC=C(c2ccccc2)c2ccccc2)[C@H](C)c2ccc(OC)cc2)CC1` [NY0589, (R)-N-(2-(4-ethylpiperazin-1-yl)ethyl)-N-(1-(4-methoxyphenyl)ethyl)-3,3-diphenylprop-2-en-1-amine], for which, on mGFP-K-RASG12V, the EC50 came out at 2180 nM and the Emax is 0.895. Also, in data set [1], the “Cytotoxic at 30 μM” value is on record as “Yes”.

`COc1ccc([C@@H](C)N(CC=C(c2ccccc2)c2ccccc2)CCN2CCN(C(=O)C(C)F)CC2)cc1` (stereo partly drawn) [NY0591, 1-(4-(2-((3,3-diphenylallyl)((R)-1-(4-methoxyphenyl)ethyl)amino)ethyl)piperazin-1-yl)-2-fluoropropan-1-one] showed an Emax on mGFP-K-RASG12V of 0.825. Also, in data set [1], the “Cytotoxic at 30 μM” value was “No”.

In the case of `C(CN(CCN1CCCC1)[C@@H]1C[C@H]1c1ccccc1)=C(c1ccccc1)c1ccccc1` [NY0592, (1R,2S)-N-(3,3-diphenylallyl)-2-phenyl-N-(2-(pyrrolidin-1-yl)ethyl)cyclopropan-1-amine], on mGFP-K-RASG12V, the EC50 came out at 5600 nM and the Emax is reported as 0.685. In data set [1], the “Cytotoxic at 30 μM” value is on record as “Yes”.

Consider `COc1ccc([C@@H](C)N(CC=C(c2ccccc2)c2ccccc2)CCN2CCC2)cc1` [NY0593, (R)-N-(2-(azetidin-1-yl)ethyl)-N-(1-(4-methoxyphenyl)ethyl)-3,3-diphenylprop-2-en-1-amine], for which, at mGFP-K-RASG12V, the IC50 turned out to be 0.5 µM, the EC50 turned out to be 492 nM and the Emax is 0.694. Further, the Emax at mGFP-K-RASG12V (listed as 12i) came to 0.69 ± 0.02. In addition, on mGFP-K-RASG12V (versus 12f (NY0244)), the “fold potency loss / decreased potency” value was 5 fold. Further, the “Cytotoxic at 30 μM” value in data set [1] is reported as “Yes”.

For `CCCN1CCN(CCN(CC=C(c2ccccc2)c2ccccc2)[C@H](C)c2ccc(OC)cc2)CC1` [NY0594, (R)-N-(2-(4-propylpiperazin-1-yl)ethyl)-N-(1-(4-methoxyphenyl)ethyl)-3,3-diphenylprop-2-en-1-amine], on mGFP-K-RASG12V, the EC50 worked out at 3260 nM and the Emax amounted to 0.75. Further, in data set [1], the “Cytotoxic at 30 μM” value is on record as “Yes”.

For the compound `C(CN(CC=C(c1ccccc1)c1ccccc1)[C@@H]1C[C@H]1c1ccccc1)=C(c1ccccc1)c1ccccc1` [NY022601, (1R,2S)-N,N-bis(3,3-diphenylallyl)-2-phenylcyclopropanamine], on mGFP-K-RASG12V, the IC50 worked out at 0.42 µM and the Emax came to 0.713. Moreover, the “Cytotoxic at 30 μM” value in data set [1] is “No”.

Consider `C(CN[C@@H]1C[C@H]1c1ccccc1)=C(c1ccccc1)c1ccccc1` [NY022602, (1R,2S)-N-(3,3-diphenylallyl)-2-phenylcyclopropanamine], for which, at mGFP-K-RASG12V, the 50% inhibitory concentration (IC50) came out at 0.16 µM and the Emax stood at 0.637. The “Cytotoxic at 30 μM” value in data set [1] is “No”.

For the compound `C[C@@H](CN(CC=C(c1ccccc1)c1ccccc1)CC=C(c1ccccc1)c1ccccc1)c1ccccc1` [NY022701, (R)-N-(3,3-diphenylallyl)-3,3-diphenyl-N-(2-phenylpropyl)prop-2-en-1-amine], on mGFP-K-RASG12V, the Emax is 0.494. In addition, in data set [1], the “Cytotoxic at 30 μM” value is on record as “No”.

For the compound `C[C@@H](CNCC=C(c1ccccc1)c1ccccc1)c1ccccc1` [NY022702, (R)-3,3-diphenyl-N-(2-phenylpropyl)prop-2-en-1-amine], at mGFP-K-RASG12V, the IC50 is 16.9 µM and the Emax was found to be 0.608. Further, in data set [1], the “Cytotoxic at 30 μM” value was “No”.

Consider `C(CN(CC=C(c1ccccc1)c1ccccc1)C1(c2ccccc2)CC1)=C(c1ccccc1)c1ccccc1` [NY040401, N,N-bis(3,3-diphenylallyl)-1-phenylcyclopropanamine], for which, on mGFP-K-RASG12V, the IC50 stood at 1.46 µM and the Emax was 0.778. In data set [1], the “Cytotoxic at 30 μM” value is “No”.
